Publication PMC4695185, “Semi-synthetic ocotillol analogues as selective ABCB1-mediated drug resistance reversal agents” (Oncotarget, 2015)
Where two headings read alike, the source gives them in different places.

Legend:
ABCB1 [1] = target: T1, ABCB1 (Homo sapiens, UniProt P08183)
HEK/ABCB1 = tested on: T2, HEK/ABCB1; experiment: cells; parameters: species or system HEK293 and transfected HEK293; MTT cytotoxicity, absorbance 570 nm, 72 h; settings: Homo sapiens, HEK293, 72 h; drug alone; read-out: IC50 HEK/ABCB1 (paclitaxel)
T2 construct: HEK293 transfected with ABCB1
Protocol: (§1) The MTT colorimetric assay was used to detect the sensitivity of the cells against anticancer drugs. Cells (5 × 10^3/well) were seeded evenly into (160 μl/well) 96-well plates and cultured overnight. For the reversal experiments, ORA, OSA, and parallel control modulators (20 μl/well) were added 1 h prior. Different concentrations of the chemotherapeutic drugs (20 μl/well) were then added into the designated wells. After 72 h of incubation, 20 μl of MTT solution (4 mg/ml) was added to each well, and the plate was further incubated for 4 h. Subsequently, the medium was discarded, and 100 μl of dimethylsulfoxide (DMSO) was added into each well to dissolve the formazan crystals. The absorbance was determined at 570 nm by the OPSYS microplate reader (DYNEX Technology, Inc., Chantilly, VA). The IC50 value was calculated from the survival curves using the modified Bliss method. Verapamil was used at a nontoxic concentration of 3 μM as a positive control for ABCB1 overexpressing cell lines. FTC at 3 μM and PAK-104P at 10 μM were used as positive control for ABCG2 and ABCC1 overexpressing cell lines, respectively.

HEK293 = experiment: cells; parameters: species or system HEK293 and transfected HEK293; MTT cytotoxicity, absorbance 570 nm, 72 h; settings: Homo sapiens, HEK293, 72 h, drug alone
Protocol: as §1

ABCB1 [2] = target: T1, ABCB1; experiment: cell-based; parameters: crude membranes of High-five cells expressing ABCB1; settings: read-out: vanadate-sensitive ATPase stimulation in crude membranes (weak: maximal 1.78-fol)
ABCB1 [3] = target: T1, ABCB1; experiment: biochemical; parameters: full length ABCB1 (HEK/ABCB1); crude membranes of High-five cells expressing ABCB1
HEK/ABCG2 = tested on: T3, HEK/ABCG2; experiment: cells; parameters: species or system HEK293 and transfected HEK293; MTT cytotoxicity, absorbance 570 nm, 72 h; settings: Homo sapiens, HEK293, 72 h; drug alone; read-out: IC50 HEK/ABCG2 (mitoxantrone)
T3 construct: HEK293 transfected with ABCG2 (wild type)
Protocol: as §1

T1 sequence (P08183 whole entry): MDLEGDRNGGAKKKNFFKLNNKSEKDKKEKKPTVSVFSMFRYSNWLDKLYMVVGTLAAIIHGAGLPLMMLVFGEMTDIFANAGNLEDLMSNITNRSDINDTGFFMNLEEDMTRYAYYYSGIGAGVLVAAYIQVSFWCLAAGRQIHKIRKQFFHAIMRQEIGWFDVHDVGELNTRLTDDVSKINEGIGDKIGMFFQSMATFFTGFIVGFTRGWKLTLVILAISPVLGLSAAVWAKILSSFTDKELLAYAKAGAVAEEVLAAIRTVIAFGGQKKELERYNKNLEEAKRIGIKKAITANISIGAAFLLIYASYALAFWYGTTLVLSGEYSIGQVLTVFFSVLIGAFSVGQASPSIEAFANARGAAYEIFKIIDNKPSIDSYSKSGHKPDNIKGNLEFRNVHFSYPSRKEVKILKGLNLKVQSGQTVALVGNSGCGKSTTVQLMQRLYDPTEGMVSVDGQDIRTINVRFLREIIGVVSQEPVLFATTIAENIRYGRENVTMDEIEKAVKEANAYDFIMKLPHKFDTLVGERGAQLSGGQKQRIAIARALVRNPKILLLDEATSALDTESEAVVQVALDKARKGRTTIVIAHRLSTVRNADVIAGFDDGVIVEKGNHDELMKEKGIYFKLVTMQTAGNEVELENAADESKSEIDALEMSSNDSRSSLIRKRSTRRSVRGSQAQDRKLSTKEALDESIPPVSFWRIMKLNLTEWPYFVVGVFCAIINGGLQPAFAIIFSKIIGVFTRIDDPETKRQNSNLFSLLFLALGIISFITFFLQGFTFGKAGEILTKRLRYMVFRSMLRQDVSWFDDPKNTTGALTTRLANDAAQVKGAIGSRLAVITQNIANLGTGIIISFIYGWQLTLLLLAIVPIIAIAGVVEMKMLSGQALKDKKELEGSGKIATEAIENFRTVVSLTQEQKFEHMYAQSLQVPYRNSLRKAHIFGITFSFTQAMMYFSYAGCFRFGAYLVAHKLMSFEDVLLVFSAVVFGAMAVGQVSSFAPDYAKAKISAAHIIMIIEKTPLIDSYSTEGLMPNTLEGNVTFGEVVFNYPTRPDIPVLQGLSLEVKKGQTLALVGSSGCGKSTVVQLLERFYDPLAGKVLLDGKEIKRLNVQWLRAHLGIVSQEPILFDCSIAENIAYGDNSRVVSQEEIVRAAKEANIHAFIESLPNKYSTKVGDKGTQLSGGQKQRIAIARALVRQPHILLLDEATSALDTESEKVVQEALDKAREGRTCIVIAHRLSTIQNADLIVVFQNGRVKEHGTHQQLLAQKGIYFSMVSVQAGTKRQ

CC(=O)O[C@H]1C(=O)[C@@]2(C)[C@H]([C@H](OC(=O)c3ccccc3)[C@]3(O)C[C@H](OC(=O)[C@H](O)[C@@H](NC(=O)c4ccccc4)c4ccccc4)C(C)=C1C3(C)C)[C@]1(OC(C)=O)CO[C@@H]1C[C@@H]2O [paclitaxel]
radiolabelled efflux and accumulation in ABCB1-overexpressing versus parental ce (ABCB1 [1]): decreased much faster over time than those in the parental cells, suggesting an active process of drug efflux mediated by ABCB1
IC50 (HEK/ABCB1): 8200 nM
IC50 (HEK293; read-out: IC50 HEK293 (paclitaxel)): 180 nM

CC(C)(O)[C@@H]1CC[C@@](C)([C@H]2CC[C@]3(C)[C@@H]2[C@H](O)C[C@@H]2[C@@]4(C)CC[C@H](N)C(C)(C)[C@@H]4CC[C@]23C)O1 [OSA, (20S, 24R/S)-epoxy-12β, 25-dihydroxy-dommarane-3β-amine]
maximal fold induction (ABCB1 [2]): 1.78

CC(C)(O)[C@H]1CC[C@@](C)([C@H]2CC[C@]3(C)[C@@H]2[C@H](O)C[C@@H]2[C@@]4(C)CC[C@H](N)C(C)(C)[C@@H]4CC[C@]23C)O1 [ORA, (20S, 24R/S)-epoxy-12β, 25-dihydroxy-dommarane-3β-amine]
EC50 (ABCB1 [3]): 2080 nM

O=C1c2c(O)ccc(O)c2C(=O)c2c(NCCNCCO)ccc(NCCNCCO)c21 [Mitoxantrone]
IC50 (HEK/ABCG2): 920 nM
IC50 (HEK293; read-out: IC50 HEK293 (mitoxantrone)): 40 nM
